# Tests used:
# [1] = tested on: Rattus norvegicus; test: Anticonvulsant activity against PTZ-induced kindling Wistar rat model assessed as seizure latency at 30 mg/kg, ip; type: functional; details: route intraperitoneal
# [2] = tested on: Rattus norvegicus; test: Anticonvulsant activity against PTZ-induced kindling Wistar rat model assessed as duration of behavirol seizure at 30 mg/kg, ip; type: functional; details: route intraperitoneal
# [3] = tested on: Rattus norvegicus; test: Neurotoxicity in Wistar rat at 30 mg/kg, ip by rotarod test; type: toxicity, organism-based; design: dose 30 mg/kg, route intraperitoneal; details: in vivo
# [4] = tested on: Rattus norvegicus; test: Neurotoxicity in Wistar rat assessed as motor impairment at 30 mg/kg, ip by rotarod test; type: toxicity, organism-based; design: dose 30 mg/kg, route intraperitoneal; details: in vivo
# [5] = tested on: Rattus norvegicus; test: Neurotoxicity in Wistar rat assessed as motor impairment at 100 mg/kg, ip by rotarod test; type: toxicity, organism-based; design: dose 100 mg/kg, route intraperitoneal; details: in vivo
# [6] = tested on: Rattus norvegicus; test: Anticonvulsant activity against PTZ-induced kindling Wistar rat model assessed as seizure latency at 100 mg/kg, ip; type: functional; details: route intraperitoneal
# [7] = tested on: Rattus norvegicus; test: Anticonvulsant activity against PTZ-induced kindling Wistar rat model assessed as duration of behavirol seizure at 100 mg/kg, ip; type: functional; details: route intraperitoneal
# [8] = tested on: Rattus norvegicus; test: Anticonvulsant activity against PTZ-induced kindling Wistar rat model assessed as seizure latency at 200 mg/kg, ip; type: functional; details: route intraperitoneal
# [9] = tested on: Rattus norvegicus; test: Anticonvulsant activity against PTZ-induced kindling Wistar rat model assessed as duration of behavirol seizure at 200 mg/kg, ip; type: functional; details: route intraperitoneal
SMILES,Time [1] [s],Time [2] [s],further results
O=[N+]([O-])O.c1ccc(CO/N=C2/c3ccccc3OCC2n2ccnc2)cc1 (racemic),274,49.8,–
O=[N+]([O-])O.c1ccc(CO/N=C2\c3ccccc3OCC2n2ccnc2)cc1 (racemic),288,50.8,–
Clc1ccc(CO/N=C2/c3ccccc3OCC2n2ccnc2)cc1.O=[N+]([O-])O (racemic),237,52,–
Clc1ccc(CO/N=C2\c3ccccc3OCC2n2ccnc2)cc1.O=[N+]([O-])O (racemic),258,51,–
Brc1ccc(CO/N=C2/c3ccccc3OCC2n2ccnc2)cc1.O=[N+]([O-])O (racemic),268,54.8,–
Brc1ccc(CO/N=C2\c3ccccc3OCC2n2ccnc2)cc1.O=[N+]([O-])O (racemic),261,56.5,–
Clc1ccc(CO/N=C2/c3ccccc3OCC2n2ccnc2)c(Cl)c1.O=[N+]([O-])O (racemic),358,49.2,–
Clc1ccc(CO/N=C2\c3ccccc3OCC2n2ccnc2)c(Cl)c1.O=[N+]([O-])O (racemic),293,49.3,–
Clc1ccc(CO/N=C2/c3ccccc3OCC2n2ccnc2)cc1Cl.O=[N+]([O-])O (racemic),285,50.3,–
Clc1ccc(CO/N=C2\c3ccccc3OCC2n2ccnc2)cc1Cl.O=[N+]([O-])O (racemic),266,51.8,–
Clc1ccc2c(c1)OCC(n1ccnc1)/C2=N\OCc1ccccc1.O=[N+]([O-])O (racemic),323,46.7,–
Clc1ccc(CO/N=C2/c3ccc(Cl)cc3OCC2n2ccnc2)cc1.O=[N+]([O-])O (racemic),467,47,–
Clc1ccc(CO/N=C2/c3ccc(Cl)cc3OCC2n2ccnc2)c(Cl)c1.O=[N+]([O-])O (racemic),715,40.3,Activity [3]: Non-toxic; Activity [4]: 25%
Clc1ccc2c(c1)OCC(n1ccnc1)/C2=N\OCc1ccc(Cl)c(Cl)c1.O=[N+]([O-])O (racemic),271,48.5,–
CC1Oc2ccccc2/C(=N/OCc2ccccc2)C1n1ccnc1.O=[N+]([O-])O (racemic),259,52.7,–
CC1Oc2ccccc2/C(=N/OCc2ccc(Cl)cc2)C1n1ccnc1.O=[N+]([O-])O (racemic),286,49.7,–
CC1Oc2ccccc2/C(=N/OCc2ccc(Br)cc2)C1n1ccnc1.O=[N+]([O-])O (racemic),305,51.3,–
CC1Oc2ccccc2/C(=N/OCc2ccc(F)cc2)C1n1ccnc1.O=[N+]([O-])O (racemic),263,52.3,–
CC1Oc2ccccc2/C(=N/OCc2cccc(F)c2)C1n1ccnc1.O=[N+]([O-])O (racemic),321,51.5,–
CC1Oc2ccccc2/C(=N/OCc2ccccc2F)C1n1ccnc1.O=[N+]([O-])O (racemic),254,51.7,–
CC1Oc2ccccc2/C(=N/OCc2ccc(Cl)cc2Cl)C1n1ccnc1.O=[N+]([O-])O (racemic),644,42.8,–
CC1Oc2ccccc2/C(=N/OCc2ccc(Cl)c(Cl)c2)C1n1ccnc1.O=[N+]([O-])O (racemic),367,47.5,–
CC1Oc2cc(Cl)ccc2/C(=N/OCc2ccccc2)C1n1ccnc1.O=[N+]([O-])O (racemic),282,50.7,–
CC1Oc2cc(Cl)ccc2/C(=N/OCc2ccc(Cl)cc2)C1n1ccnc1.O=[N+]([O-])O (racemic),286,45.5,–
CC1Oc2cc(Cl)ccc2/C(=N/OCc2ccc(Cl)cc2Cl)C1n1ccnc1.O=[N+]([O-])O (racemic),776,342,Activity [3]: Non-toxic; Activity [5]: 50%
CCCC(CCC)C(=O)[O-].[Na+] [VALPROATE SODIUM],–,–,Time [6]: 817 s; Time [7]: 40.5 s; Time [8]: 900 s; Time [9]: 26.5 s

# — ChEMBL document CHEMBL1641496, “Imidazolylchromanone oxime ethers as potential anticonvulsant agents: Anticonvulsive evaluation in PTZ-kindling model of epilepsy and SAR study” (Bioorg Med Chem Lett, 2011)
